Structures are written as SMILES.

Here are results for 36 compounds from patent US8541588B2, “Sulfonamide derivatives” (Pfizer Limited, priority 2009, dated 2013).

This test deals with T1, Nav1.7 (or SCN9A) channel; HEK cells stably transfected with hSCN9A (Homo sapiens, UniProt Q15858).
T1 construct: expressed in transfected cells
In words: Nav1.7 block, PatchXpress 7000 automated whole-cell voltage clamp, estimated IC50 (EIC50). As to conditions: PatchXpress platform; hSCN9A HEK cells held at V1/2 of inactivation; estimated IC50. The test is classed as cell-based.

T1 sequence (Q15858 whole entry): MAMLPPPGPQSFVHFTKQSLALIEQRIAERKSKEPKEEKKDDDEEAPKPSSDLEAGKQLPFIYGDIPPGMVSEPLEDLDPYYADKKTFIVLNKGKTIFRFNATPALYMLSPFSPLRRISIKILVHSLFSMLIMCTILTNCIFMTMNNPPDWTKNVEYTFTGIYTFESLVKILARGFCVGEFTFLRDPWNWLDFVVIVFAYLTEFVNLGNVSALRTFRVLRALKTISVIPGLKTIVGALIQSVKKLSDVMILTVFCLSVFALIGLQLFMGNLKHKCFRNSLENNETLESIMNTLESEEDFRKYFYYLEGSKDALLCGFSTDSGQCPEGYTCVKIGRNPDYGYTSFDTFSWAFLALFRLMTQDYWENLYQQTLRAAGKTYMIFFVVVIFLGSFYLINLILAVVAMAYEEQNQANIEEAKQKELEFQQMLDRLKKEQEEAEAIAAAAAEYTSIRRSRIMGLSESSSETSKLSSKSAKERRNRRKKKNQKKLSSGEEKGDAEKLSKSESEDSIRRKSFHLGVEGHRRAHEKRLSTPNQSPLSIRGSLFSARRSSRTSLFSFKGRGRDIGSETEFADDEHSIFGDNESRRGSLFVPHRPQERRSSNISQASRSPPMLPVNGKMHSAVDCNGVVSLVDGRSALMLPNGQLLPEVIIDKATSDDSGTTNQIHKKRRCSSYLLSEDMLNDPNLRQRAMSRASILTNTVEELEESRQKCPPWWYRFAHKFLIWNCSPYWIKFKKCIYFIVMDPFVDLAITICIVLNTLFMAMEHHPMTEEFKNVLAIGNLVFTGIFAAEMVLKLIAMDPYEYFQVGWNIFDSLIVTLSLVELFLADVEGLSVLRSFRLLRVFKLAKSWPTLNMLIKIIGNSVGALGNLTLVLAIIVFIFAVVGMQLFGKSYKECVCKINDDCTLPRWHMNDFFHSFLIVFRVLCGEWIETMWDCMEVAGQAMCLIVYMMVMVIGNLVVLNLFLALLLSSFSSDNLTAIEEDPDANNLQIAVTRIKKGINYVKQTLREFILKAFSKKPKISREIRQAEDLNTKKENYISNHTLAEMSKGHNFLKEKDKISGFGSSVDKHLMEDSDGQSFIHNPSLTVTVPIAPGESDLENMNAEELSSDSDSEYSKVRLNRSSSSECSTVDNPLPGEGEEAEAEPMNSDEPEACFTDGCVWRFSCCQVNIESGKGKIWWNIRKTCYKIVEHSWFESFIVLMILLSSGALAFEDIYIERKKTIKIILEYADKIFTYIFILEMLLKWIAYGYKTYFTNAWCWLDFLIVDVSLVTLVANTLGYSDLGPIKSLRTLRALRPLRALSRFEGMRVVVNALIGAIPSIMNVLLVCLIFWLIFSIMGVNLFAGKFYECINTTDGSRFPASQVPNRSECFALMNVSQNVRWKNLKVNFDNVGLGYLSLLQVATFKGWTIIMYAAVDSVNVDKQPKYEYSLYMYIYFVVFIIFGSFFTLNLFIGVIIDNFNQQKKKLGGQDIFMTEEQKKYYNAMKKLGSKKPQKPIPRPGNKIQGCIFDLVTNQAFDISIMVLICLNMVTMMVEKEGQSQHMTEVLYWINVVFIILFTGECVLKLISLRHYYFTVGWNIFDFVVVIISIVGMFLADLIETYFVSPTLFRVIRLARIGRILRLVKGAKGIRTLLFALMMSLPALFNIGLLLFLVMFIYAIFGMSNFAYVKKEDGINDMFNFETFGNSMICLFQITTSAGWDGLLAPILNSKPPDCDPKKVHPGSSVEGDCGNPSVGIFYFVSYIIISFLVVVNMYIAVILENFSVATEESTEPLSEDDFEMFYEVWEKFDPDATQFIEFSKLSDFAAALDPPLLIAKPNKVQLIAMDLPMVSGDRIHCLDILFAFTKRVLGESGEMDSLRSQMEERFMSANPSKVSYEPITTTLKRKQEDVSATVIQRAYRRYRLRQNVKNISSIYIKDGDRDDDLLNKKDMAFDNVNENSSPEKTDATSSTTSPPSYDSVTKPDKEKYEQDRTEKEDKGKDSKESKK

A word on the IC50: it is the concentration that gives 50% inhibition. Take `N#Cc1cc(S(=O)(=O)Nc2nccs2)ccc1Oc1ccc(Cl)cc1-c1ccccc1` [Example 156, 4-[(5-chlorobiphenyl-2-yl)oxy]-3-cyano-N-1,3-thiazol-2-ylbenzenesulfonamide]: the IC50 was 30 nM. Next, `CC(C)Oc1ccc(-c2cc(F)ccc2Oc2ccc(S(=O)(=O)Nc3nccs3)cc2C#N)cc1` [Example 157, 3-cyano-4-[(5-fluoro-4′-isopropoxybiphenyl-2-yl)oxy]-N-1,3-thiazol-2-ylbenzenesulfonamide]: 450 nM. Next, `N#Cc1cc(S(=O)(=O)Nc2nccs2)ccc1Oc1ccc(F)cc1-c1ccc(F)c(F)c1` [Example 158, 3-cyano-N-1,3-thiazol-2-yl-4-[(3′,4′,5-trifluorobiphenyl-2-yl)oxy]benzenesulfonamide]: 310 nM.

`Cc1nccn1-c1cc(Cl)ccc1Oc1ccc(S(=O)(=O)Nc2nccs2)cc1C#N` [Example 159, 4-[4-chloro-2-(2-methyl-1H-imidazol-1-yl)phenoxy]-3-cyano-N-1,3-thiazol-2-ylbenzenesulfonamide]: the IC50 is 80 nM. Turning to `COCc1cccc(-c2cc(F)ccc2Oc2ccc(S(=O)(=O)Nc3nccs3)cc2C#N)c1` [Example 160, 3-cyano-4-{[5-fluoro-3′-(methoxymethyl)biphenyl-2-yl]oxy}-N-1,3-thiazol-2-ylbenzenesulfonamide], the IC50 is 60 nM.

For the compound `N#Cc1cc(S(=O)(=O)Nc2nccs2)ccc1Oc1ccc(F)cc1-c1cccc(CO)c1` [Example 161, 3-cyano-4-{[5-fluoro-3′-(hydroxymethyl)biphenyl-2-yl]oxy}-N-1,3-thiazol-2-ylbenzenesulfonamide], the half-maximal inhibitory concentration (IC50) is 70 nM. For `N#Cc1cc(S(=O)(=O)Nc2nccs2)ccc1Oc1ccc(F)cc1-c1ccc(CO)cc1` [Example 162, 3-cyano-4-{[5-fluoro-4′-(hydroxymethyl)biphenyl-2-yl]oxy}-N-1,3-thiazol-2-ylbenzenesulfonamide], the half-maximal inhibitory concentration (IC50) is 420 nM.

On to `COCc1ccc(-c2cc(F)ccc2Oc2ccc(S(=O)(=O)Nc3nccs3)cc2C#N)cc1` [Example 163, 3-cyano-4-{[5-fluoro-4′-(methoxymethyl)biphenyl-2-yl]oxy}-N-1,3-thiazol-2-ylbenzenesulfonamide], for which the IC50 was 410 nM.

Regarding `N#Cc1cc(S(=O)(=O)Nc2nccs2)ccc1Oc1ccc(Cl)cc1-c1ccccn1` [Example 164, 4-(4-chloro-2-pyridin-2-ylphenoxy)-3-cyano-N-1,3-thiazol-2-ylbenzenesulfonamide], the half-maximal inhibitory concentration (IC50) was 580 nM.

Consider `N#Cc1cc(S(=O)(=O)Nc2nccs2)ccc1Oc1ccccc1-c1ccccc1` [Example 165, 4-(biphenyl-2-yloxy)-3-cyano-N-(thiazol-2-yl)benzenesulfonamide], for which the IC50 is 50 nM. The result for `Cc1nc(-c2ccccc2Oc2ccc(S(=O)(=O)Nc3nccs3)cc2C#N)cs1` [Example 166, 3-cyano-4-(2-(2-methylthiazol-4-yl)phenoxy)-N-(thiazol-2-yl)benzenesulfonamide] reads 1810 nM; that for `N#Cc1cc(S(=O)(=O)Nc2nccs2)ccc1Oc1cnn(Cc2ccc(Cl)cc2)c1` [Example 167, 4-(1-(4-chlorobenzyl)-1H-pyrazol-4-yloxy)-3-cyano-N-(thiazol-2-yl)benzenesulfonamide], 750 nM; that for `N#Cc1cc(S(=O)(=O)Nc2nccs2)ccc1Oc1cc(C(F)(F)F)nn1-c1ccccc1` [Example 168, 3-cyano-4-(1-phenyl-3-(trifluoromethyl)-1H-pyrazol-5-yloxy)-N-(thiazol-2-yl)benzenesulfonamide], 70 nM. The result for `Cn1nccc1-c1cc(F)ccc1Oc1ccc(S(=O)(=O)Nc2nccs2)cc1C#N` [Example 169, 3-cyano-4-(4-fluoro-2-(1-methyl-1H-pyrazol-5-yl)phenoxy)-N-(thiazol-2-yl)benzenesulfonamide] reads 50 nM; that for `Cn1nccc1-c1cc(Cl)ccc1Oc1ccc(S(=O)(=O)Nc2nccs2)cc1C#N` [Example 170, 4-[4-Chloro-2-(1-methyl-1H-pyrazol-5-yl)phenoxy]-3-cyano-N-1,3-thiazol-2-ylbenzenesulfonamide], 10 nM. The result for `N#Cc1cc(S(=O)(=O)Nc2nccs2)ccc1Oc1ccc(Cl)cc1-c1ccnn1-c1ccccc1` [Example 171, 4-(4-chloro-2-(1-phenyl-1H-pyrazol-5-yl)phenoxy)-3-cyano-N-(thiazol-2-yl)benzenesulfonamide] reads 110 nM; that for `N#Cc1cc(S(=O)(=O)Nc2nccs2)ccc1Oc1ccccc1-c1nnco1` [Example 173, 4-(2-(1,3,4-oxadiazol-2-yl)phenoxy)-3-cyano-N-(thiazol-2-yl)benzenesulfonamide], 2090 nM.

Consider `N#Cc1cc(S(=O)(=O)Nc2nccs2)ccc1Oc1ccccc1-c1ccno1` [Example 174, 3-cyano-4-(2-(isoxazol-5-yl)phenoxy)-N-(thiazol-2-yl)benzenesulfonamide], for which the 50% inhibitory concentration (IC50) was over 10000 nM. Next, `N#Cc1cc(S(=O)(=O)Nc2nccs2)ccc1Oc1ccc(F)cc1-c1ccnn1CC(F)(F)F` [Example 175, 3-cyano-4-(4-fluoro-2-(1-(2,2,2-trifluoroethyl)-1H-pyrazol-5-yl)phenoxy)-N-(thiazol-2-yl)benzenesulfonamide]: 540 nM; `Cc1ccnn1-c1cc(F)ccc1Oc1ccc(S(=O)(=O)Nc2nccs2)cc1C#N` [Example 176, 3-cyano-4-(4-fluoro-2-(5-methyl-1H-pyrazol-1-yl)phenoxy)-N-(thiazol-2-yl)benzenesulfonamide]: 8870 nM. Next, `N#Cc1cc(S(=O)(=O)Nc2nccs2)ccc1Oc1ccc(Cl)cc1-c1ccnn1CC(F)(F)F` [Example 177, 4-(4-chloro-2-(1-(2,2,2-trifluoroethyl)-1H-pyrazol-5-yl)phenoxy)-3-cyano-N-(thiazol-2-yl)benzenesulfonamide]: 100 nM; `Cn1ccc(-c2ccc(Oc3ccc(S(=O)(=O)Nc4nccs4)cc3C#N)c(Cl)c2)n1` [Example 178, 4-(2-chloro-4-(1-methyl-1H-pyrazol-3-yl)phenoxy)-3-cyano-N-(thiazol-2-yl)benzenesulfonamide]: 3080 nM. Next, `Cn1nccc1-c1ccc(Oc2ccc(S(=O)(=O)Nc3nccs3)cc2C#N)c(Cl)c1` [Example 179, 4-(2-chloro-4-(1-methyl-1H-pyrazol-5-yl)phenoxy)-3-cyano-N-(thiazol-2-yl)benzenesulfonamide]: 2190 nM; `N#Cc1cc(S(=O)(=O)Nc2nccs2)ccc1Oc1ccccc1-c1nncn1-c1ccccc1` [Example 181, 3-cyano-4-(2-(4-phenyl-4H-1,2,4-triazol-3-yl)phenoxy)-N-(thiazol-2-yl)benzenesulfonamide]: over 10000 nM. In the case of `Cn1cnnc1-c1cc(Cl)ccc1Oc1ccc(S(=O)(=O)Nc2nccs2)cc1C#N` [Example 182, 4-(4-chloro-2-(4-methyl-4H-1,2,4-triazol-3-yl)phenoxy)-3-cyano-N-(thiazol-2-yl)benzenesulfonamide], the half-maximal inhibitory concentration (IC50) was 930 nM. For `N#Cc1cc(S(=O)(=O)Nc2nccs2)ccc1Oc1ccc(-n2ccc(C(F)(F)F)n2)cc1` [Example 183, 3-cyano-N-thiazol-2-yl-4-[4-(3-trifluoromethyl-pyrazol-1-yl)-phenoxy]-benzenesulfonamide], the IC50 was 990 nM. Consider `CC(C)(C)n1ccc(-c2ccc(Oc3ccc(S(=O)(=O)Nc4nccs4)cc3C#N)c(F)c2)n1` [Example 184, 4-[4-(1-tert-butyl-1H-pyrazol-3-yl)-2-fluoro-phenoxy]-3-cyano-N-thiazol-2-yl-benzenesulfonamide], for which the half-inhibitory concentration (IC50) is 9170 nM. The result for `N#Cc1cc(S(=O)(=O)Nc2nccs2)ccc1Oc1ccc(-c2cc[nH]n2)cc1F` [Example 185, 3-cyano-4-[2-fluoro-4-(1H-pyrazol-3-yl)-phenoxy]-N-thiazol-2-yl-benzenesulfonamide] reads 33000 nM; that for `Cc1cc(C)n(-c2ccc(Oc3ccc(S(=O)(=O)Nc4nccs4)cc3C#N)cc2)n1` [Example 186, 3-cyano-4-[4-(3,5-dimethyl-pyrazol-1-yl)-phenoxy]-N-thiazol-2-yl-benzenesulfonamide], 1050 nM.

On to `N#Cc1cc(S(=O)(=O)Nc2nccs2)ccc1Oc1ccc(-c2ccccc2)cc1` [Example 187, 4-(biphenyl-4-yloxy)-3-cyano-N-thiazol-2-yl-benzenesulfonamide], for which the 50% inhibitory concentration (IC50) was 1670 nM.

For the compound `N#Cc1cc(S(=O)(=O)Nc2nccs2)ccc1Oc1cc(-c2ccccc2F)nn1CC(F)(F)F` [Example 188, 3-cyano-4-[5-(2-fluoro-phenyl)-2-(2,2,2-trifluoro-ethyl)-2H-pyrazol-3-yloxy]-N-thiazol-2-yl-benzenesulfonamide], the IC50 was 9420 nM. For `N#Cc1cc(S(=O)(=O)Nc2nccs2)ccc1Oc1cc(-c2ccc(Cl)cc2)nn1CC(F)(F)F` [Example 189, 4-[5-(4-chloro-phenyl)-2-(2,2,2-trifluoro-ethyl)-2H-pyrazol-3-yloxy]-3-cyano-N-thiazol-2-yl-benzenesulfonamide], the IC50 was 2800 nM. The result for `N#Cc1cc(S(=O)(=O)Nc2nccs2)ccc1Oc1cc(-c2ccccc2)nn1CC(F)(F)F` [Example 190, 3-cyano-4-[5-phenyl-2-(2,2,2-trifluoro-ethyl)-2H-pyrazol-3-yloxy]-N-thiazol-2-yl-benzenesulfonamide] reads 7710 nM; that for `N#Cc1cc(S(=O)(=O)Nc2nccs2)ccc1Oc1cc(C2CC2)nn1-c1ccccn1` [Example 191, 3-cyano-4-(5-cyclopropyl-2-pyridin-2-yl-2H-pyrazol-3-yloxy)-N-thiazol-2-yl-benzenesulfonamide], over 10000 nM. Next, `N#Cc1cc(S(=O)(=O)Nc2nccs2)ccc1Oc1cc(C2CC2)nn1C1CCCCC1` [Example 192, 3-Cyano-4-(2-cyclohexyl-5-cyclopropyl-2H-pyrazol-3-yloxy)-N-thiazol-2-yl-benzenesulfonamide]: 2050 nM; `N#Cc1cc(S(=O)(=O)Nc2nccs2)ccc1Oc1cc(C2CC2)nn1-c1ccccc1F` [Example 193, 3-cyano-4-[5-cyclopropyl-2-(2-fluoro-phenyl)-2H-pyrazol-3-yloxy]-N-thiazol-2-yl-benzenesulfonamide]: 1230 nM.
